Data as given in PubChem BioAssay AID1963983 (Molecular Pharmacology Branch, DTP, NCI, 2024).
pIC50: −log10 of the molar value. Several values for one entry are separate records, joined by “and”; a condition that tells them apart may be missing. Equal values may be shown once. One block for each compound: values may come before it.

Test system: 186277-243-T-J2-PDC multi-cell spheroid viability
Test: Anticancer human tumor 186277-243-T-J2-PDC patient-derived colon adenocarcinoma cell line growth inhibition [PI3K]
Settings: for pIC50: curve of first compound; for viability, T/C: stronger effect = lower value; for IC50: curve of compound
In short: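 Complex 3D spheroids (cancer cells + endothelial HUVEC + mesenchymal stem cells); drug pairs of targeted agent x inavolisib/alpelisib/duvelisib/copanlisib; half-log series from ~Cmax, max 10 microM if Cmax unknown; endpoint viability.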

[1] = second compound 0.00316 µM, first compound 0.0316 µM
[2] = second compound 0.00316 µM, first compound 0.1 µM
[3] = second compound 0.00316 µM, first compound 0.316 µM
[4] = second compound 0.00316 µM, first compound 1 µM
[5] = second compound 0.00316 µM, first compound 3.16 µM
[6] = second compound 0.00316 µM, first compound 10 µM
[7] = second compound 0.01 µM, first compound 0.0316 µM
[8] = second compound 0.01 µM, first compound 0.1 µM
[9] = second compound 0.01 µM, first compound 0.316 µM
[10] = second compound 0.01 µM, first compound 1 µM
[11] = second compound 0.01 µM, first compound 3.16 µM
[12] = second compound 0.01 µM, first compound 10 µM
[13] = second compound 0.0316 µM, first compound 0.0316 µM
[14] = second compound 0.0316 µM, first compound 0.1 µM
[15] = second compound 0.0316 µM, first compound 0.316 µM
[16] = second compound 0.0316 µM, first compound 1 µM
[17] = second compound 0.0316 µM, first compound 3.16 µM
[18] = second compound 0.0316 µM, first compound 10 µM
[19] = second compound 0.1 µM, first compound 0.0316 µM
[20] = second compound 0.1 µM, first compound 0.1 µM
[21] = second compound 0.1 µM, first compound 0.316 µM
[22] = second compound 0.1 µM, first compound 1 µM
[23] = second compound 0.1 µM, first compound 3.16 µM
[24] = second compound 0.1 µM, first compound 10 µM
[25] = second compound 0.316 µM, first compound 0.0316 µM
[26] = second compound 0.316 µM, first compound 0.1 µM
[27] = second compound 0.316 µM, first compound 0.316 µM
[28] = second compound 0.316 µM, first compound 1 µM
[29] = second compound 0.316 µM, first compound 3.16 µM
[30] = second compound 0.316 µM, first compound 10 µM
[31] = second compound 1 µM, first compound 0.0316 µM
[32] = second compound 1 µM, first compound 0.1 µM
[33] = second compound 1 µM, first compound 0.316 µM
[34] = second compound 1 µM, first compound 1 µM
[35] = second compound 1 µM, first compound 3.16 µM
[36] = second compound 1 µM, first compound 10 µM
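Note: spheroids exposed to compounds for seven days before viability reading.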
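Throughout, for viability, T/C: 100% = DMSO vehicle control viability.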

SMILES: Cn1nccc1Nc1nccc(-c2ccn(C(CO)c3ccc(Cl)c(F)c3)c(=O)c2)n1 (configuration not stated) + CC(Nc1ccc2c(c1)OCCn1cc(N3C(=O)OCC3C(F)F)nc1-2)C(N)=O
pIC50 (second compound 0.00316 µM): 5.73
pIC50 (second compound 0.01 µM): 5.75
pIC50 (second compound 0.0316 µM): 5.83
pIC50 (second compound 0.1 µM): 6.42
pIC50 (second compound 0.316 µM): 7.13
pIC50 (second compound 1 µM): > 7.50
viability, T/C [1]: 105%
viability, T/C [2]: 114%
viability, T/C [3]: 113%
viability, T/C [4]: 69.3%
viability, T/C [5]: 37.2%
viability, T/C [6]: 22.8%
viability, T/C [7]: 111%
viability, T/C [8]: 121%
viability, T/C [9]: 109%
viability, T/C [10]: 67.3%
viability, T/C [11]: 33.5%
viability, T/C [12]: 22%
viability, T/C [13]: 103%
viability, T/C [14]: 110%
viability, T/C [15]: 98.4%
viability, T/C [16]: 61.1%
viability, T/C [17]: 28.1%
viability, T/C [18]: 20.9%
viability, T/C [19]: 124%
viability, T/C [20]: 86.5%
viability, T/C [21]: 54.2%
viability, T/C [22]: 28.9%
viability, T/C [23]: 16.4%
viability, T/C [24]: 7.14%
viability, T/C [25]: 70.4%
viability, T/C [26]: 44.5%
viability, T/C [27]: 20.3%
viability, T/C [28]: 15.9%
viability, T/C [29]: 9.67%
viability, T/C [30]: 4.2%
viability, T/C [31]: 38.1%
viability, T/C [32]: 29.4%
viability, T/C [33]: 14.2%
viability, T/C [34]: 9.05%
viability, T/C [35]: 10.6%
viability, T/C [36]: 3.67%

SMILES: CC1(C)CCC(Nc2ncc(C(F)(F)F)c(-c3c[nH]c4c(P(C)(C)=O)c(C#N)ccc34)n2)CN1 (configuration not stated) + CC(Nc1ncnc2nc[nH]c12)c1cc2cccc(Cl)c2c(=O)n1-c1ccccc1
pIC50 (second compound 0.0316 µM): 5.38
pIC50 (second compound 0.1 µM): 5.36
pIC50 (second compound 0.316 µM): 5.39
pIC50 (second compound 1 µM): 5.40
pIC50 (second compound 3.16 µM): 5.40
pIC50 (second compound 10 µM): 6.06
viability, T/C [13]: 77.7%
viability, T/C [14]: 61.8%
viability, T/C [15]: 58%
viability, T/C [16]: 59.9%
viability, T/C [17]: 66.5%
viability, T/C [18]: 1.23%
viability, T/C [19]: 92.4%
viability, T/C [20]: 57.1%
viability, T/C [21]: 62%
viability, T/C [22]: 64.4%
viability, T/C [23]: 68.6%
viability, T/C [24]: 1.55%
viability, T/C [25]: 81.3%
viability, T/C [26]: 57.7%
viability, T/C [27]: 58.3%
viability, T/C [28]: 64.1%
viability, T/C [29]: 64.2%
viability, T/C [30]: 0.31%
viability, T/C [31]: 75.4%
viability, T/C [32]: 61%
viability, T/C [33]: 60.8%
viability, T/C [34]: 63%
viability, T/C [35]: 61.9%
viability, T/C [36]: 0.97%
viability, T/C (second compound 3.16 µM, first compound 0.0316 µM): 80.1%
viability, T/C (second compound 3.16 µM, first compound 0.1 µM): 69.1%
viability, T/C (second compound 3.16 µM, first compound 0.316 µM): 63.4%
viability, T/C (second compound 3.16 µM, first compound 1 µM): 67.2%
viability, T/C (second compound 3.16 µM, first compound 3.16 µM): 63%
viability, T/C (second compound 3.16 µM, first compound 10 µM): 0.64%
viability, T/C (second compound 10 µM, first compound 0.0316 µM): 72%
viability, T/C (second compound 10 µM, first compound 0.1 µM): 59.5%
viability, T/C (second compound 10 µM, first compound 0.316 µM): 55.1%
viability, T/C (second compound 10 µM, first compound 1 µM): 53.8%
viability, T/C (second compound 10 µM, first compound 3.16 µM): 30.2%
viability, T/C (second compound 10 µM, first compound 10 µM): 1.26%

SMILES: CC1(C)CCC(Nc2ncc(C(F)(F)F)c(-c3c[nH]c4c(P(C)(C)=O)c(C#N)ccc34)n2)CN1 (configuration not stated)
viability, T/C (compound 0.0316 µM): 75.1% [middle of 4 runs]
viability, T/C (compound 0.1 µM): 55.2% [middle of 4 runs]
viability, T/C (compound 0.316 µM): 50.5% [middle of 4 runs]
viability, T/C (compound 1 µM): 59.2% [middle of 4 runs]
viability, T/C (compound 3.16 µM): 62.6% [middle of 4 runs]
viability, T/C (compound 10 µM): 0.77% [middle of 4 runs]
IC50: 3.64 µM [middle of 4 runs]

Further lines, with some results ahead:

pIC50 (second compound 0.00316 µM): < 5.00
pIC50 (second compound 0.01 µM): < 5.00
pIC50 (second compound 0.0316 µM): < 5.00
pIC50 (second compound 0.1 µM): > 7.50
pIC50 (second compound 0.316 µM): > 7.50
pIC50 (second compound 1 µM): > 7.50
SMILES: CC1(C)CCC(CN2CCN(c3ccc(C(=O)NS(=O)(=O)c4ccc(NCC5CCOCC5)c([N+](=O)[O-])c4)c(Oc4cnc5[nH]ccc5c4)c3)CC2)=C(c2ccc(Cl)cc2)C1 + COc1c(OCCCN2CCOCC2)ccc2c3n(c(=NC(=O)c4cnc(N)nc4)nc12)CCN3
viability, T/C [1]: 110%
viability, T/C [2]: 96.2%
viability, T/C [3]: 110%
viability, T/C [4]: 108%
viability, T/C [5]: 93%
viability, T/C [6]: 115%
viability, T/C [7]: 99.1%
viability, T/C [8]: 105%
viability, T/C [9]: 96.5%
viability, T/C [10]: 109%
viability, T/C [11]: 82.6%
viability, T/C [12]: 94%
viability, T/C [13]: 80.8%
viability, T/C [14]: 89.3%
viability, T/C [15]: 80.5%
viability, T/C [16]: 78.5%
viability, T/C [17]: 76.1%
viability, T/C [18]: 71.2%
viability, T/C [19]: 26.6%
viability, T/C [20]: 20.3%
viability, T/C [21]: 21.3%
viability, T/C [22]: 21.3%
viability, T/C [23]: 23.9%
viability, T/C [24]: 16.9%
viability, T/C [25]: 5.48%
viability, T/C [26]: 11.5%
viability, T/C [27]: 4.51%
viability, T/C [28]: 6.03%
viability, T/C [29]: 6.17%
viability, T/C [30]: 4.39%
viability, T/C [31]: 2.94%
viability, T/C [32]: 4.42%
viability, T/C [33]: 3.06%
viability, T/C [34]: 2.7%
viability, T/C [35]: 5.01%
viability, T/C [36]: 2.15%

IC50: 1.99 µM [middle of 4 runs]
SMILES: CC(C)NCC(C(=O)N1CCN(c2ncnc3c2C(C)CC3O)CC1)c1ccc(Cl)cc1 (configuration not stated)
viability, T/C (compound 0.0316 µM): 93.8% [middle of 4 runs]
viability, T/C (compound 0.1 µM): 88.2% [middle of 4 runs]
viability, T/C (compound 0.316 µM): 77.6% [middle of 4 runs]
viability, T/C (compound 1 µM): 55.6% [middle of 4 runs]
viability, T/C (compound 3.16 µM): 45.9% [middle of 4 runs]
viability, T/C (compound 10 µM): 28.2% (2×) and 31.3% and 28.7%

pIC50 (second compound 0.00316 µM): 5.34
pIC50 (second compound 0.01 µM): 5.34
pIC50 (second compound 0.0316 µM): 5.36
pIC50 (second compound 0.1 µM): 5.44
pIC50 (second compound 0.316 µM): 5.47
pIC50 (second compound 1 µM): > 7.50
SMILES: CC1(C)CCC(CN2CCN(c3ccc(C(=O)NS(=O)(=O)c4ccc(NCC5CCOCC5)c([N+](=O)[O-])c4)c(Oc4cnc5[nH]ccc5c4)c3)CC2)=C(c2ccc(Cl)cc2)C1 + CC(Nc1ccc2c(c1)OCCn1cc(N3C(=O)OCC3C(F)F)nc1-2)C(N)=O
viability, T/C [1]: 97.8%
viability, T/C [2]: 99.7%
viability, T/C [3]: 95.3%
viability, T/C [4]: 91.9%
viability, T/C [5]: 71.2%
viability, T/C [6]: 5.92%
viability, T/C [7]: 107%
viability, T/C [8]: 94.3%
viability, T/C [9]: 95.1%
viability, T/C [10]: 95.3%
viability, T/C [11]: 71.1%
viability, T/C [12]: 3.55%
viability, T/C [13]: 106%
viability, T/C [14]: 108%
viability, T/C [15]: 99.4%
viability, T/C [16]: 89.4%
viability, T/C [17]: 71%
viability, T/C [18]: 2.8%
viability, T/C [19]: 98.6%
viability, T/C [20]: 99.9%
viability, T/C [21]: 87.5%
viability, T/C [22]: 78.3%
viability, T/C [23]: 60.3%
viability, T/C [24]: 2.37%
viability, T/C [25]: 86.1%
viability, T/C [26]: 83.3%
viability, T/C [27]: 67.5%
viability, T/C [28]: 71.1%
viability, T/C [29]: 56.2%
viability, T/C [30]: 0.63%
viability, T/C [31]: 47.5%
viability, T/C [32]: 44.8%
viability, T/C [33]: 46.3%
viability, T/C [34]: 46.1%
viability, T/C [35]: 34.4%
viability, T/C [36]: 0.99%
